# According to PubChem BioAssay (NCI):
#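 Results reflect a 48-hour exposure of cells in 96-well plates to compound at five concentrations. TGI: total growth inhibition.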
# Experiments:
# Experiment in all cases: growth of human tumour cells (NCI), 48 h
# EKVX NSCLC = test system: EKVX NSCLC
# UACC-257 melanoma = test system: UACC-257 melanoma
# T-47D breast = test system: T-47D breast
# SF-295 CNS = test system: SF-295 CNS
# SNB-19 CNS = test system: SNB-19 CNS
# OVCAR-3 ovarian = test system: OVCAR-3 ovarian
# UACC-62 melanoma = test system: UACC-62 melanoma
# MOLT-4 leukemia = test system: MOLT-4 leukemia
# HCT-15 colon = test system: HCT-15 colon
# HOP-92 NSCLC = test system: HOP-92 NSCLC
# PC-3 prostate = test system: PC-3 prostate
# SK-MEL-2 melanoma = test system: SK-MEL-2 melanoma
# ACHN renal = test system: ACHN renal
# MDA-MB-435 = test system: MDA-MB-435
# A549 NSCLC = test system: A549 NSCLC
# SN12C renal = test system: SN12C renal
# M14 melanoma = test system: M14 melanoma
# RPMI-8226 leukemia = test system: RPMI-8226 leukemia
# U251 CNS = test system: U251 CNS
# DU-145 prostate = test system: DU-145 prostate
# IGROV1 ovarian = test system: IGROV1 ovarian
# BT-549 breast = test system: BT-549 breast
# OVCAR-4 ovarian = test system: OVCAR-4 ovarian
# HOP-62 NSCLC = test system: HOP-62 NSCLC
# SNB-75 CNS = test system: SNB-75 CNS
# HL-60(TB) leukemia = test system: HL-60(TB) leukemia
# SR leukemia = test system: SR leukemia
# HCT-116 colon = test system: HCT-116 colon
# CCRF-CEM leukemia = test system: CCRF-CEM leukemia
# MCF7 breast = test system: MCF7 breast
# A498 renal = test system: A498 renal
# K-562 leukemia = test system: K-562 leukemia
# TK-10 renal = test system: TK-10 renal
# NCI-H23 lung = test system: NCI-H23 lung
# MDA-N = test system: MDA-N
# CAKI-1 renal = test system: CAKI-1 renal
# NCI-H460 lung = test system: NCI-H460 lung
# LOX IMVI melanoma = test system: LOX IMVI melanoma
# SK-MEL-28 melanoma = test system: SK-MEL-28 melanoma
# SW-620 colon = test system: SW-620 colon
# SK-MEL-5 melanoma = test system: SK-MEL-5 melanoma
# 786-0 renal = test system: 786-0 renal
# NCI/ADR-RES ovarian = test system: NCI/ADR-RES ovarian
# COLO 205 colon = test system: COLO 205 colon
# HCC-2998 colon = test system: HCC-2998 colon
# OVCAR-5 ovarian = test system: OVCAR-5 ovarian
# UO-31 renal = test system: UO-31 renal
# RXF 393 renal = test system: RXF 393 renal
# SK-OV-3 ovarian = test system: SK-OV-3 ovarian
# KM12 colon = test system: KM12 colon
# OVCAR-8 ovarian = test system: OVCAR-8 ovarian
# SF-268 CNS = test system: SF-268 CNS
# MALME-3M melanoma = test system: MALME-3M melanoma
# NCI-H522 lung = test system: NCI-H522 lung
# SF-539 CNS = test system: SF-539 CNS
# HT29 colon = test system: HT29 colon
# MDA-MB-231 breast = test system: MDA-MB-231 breast
# NCI-H226 lung = test system: NCI-H226 lung
compound,measurement,setting,value
CCOC(=O)C1=c2[nH]c3cccc4cccc(c43)n2C(=O)CC1,TGI,EKVX NSCLC,> 100 µM
same,TGI,UACC-257 melanoma,> 100 µM
same,TGI,T-47D breast,69.8 µM
same,TGI,SF-295 CNS,> 100 µM
same,TGI,SNB-19 CNS,> 100 µM
same,TGI,OVCAR-3 ovarian,> 100 µM
same,TGI,UACC-62 melanoma,> 100 µM
same,TGI,MOLT-4 leukemia,> 100 µM
same,TGI,HCT-15 colon,> 100 µM
same,TGI,HOP-92 NSCLC,> 100 µM
same,TGI,PC-3 prostate,> 100 µM
same,TGI,SK-MEL-2 melanoma,> 100 µM
same,TGI,ACHN renal,> 100 µM
same,TGI,MDA-MB-435,> 100 µM
same,TGI,A549 NSCLC,> 100 µM
same,TGI,SN12C renal,> 100 µM
same,TGI,M14 melanoma,> 100 µM
same,TGI,RPMI-8226 leukemia,> 100 µM
same,TGI,U251 CNS,> 100 µM
same,TGI,DU-145 prostate,> 100 µM
same,TGI,IGROV1 ovarian,> 100 µM
same,TGI,BT-549 breast,> 100 µM
same,TGI,OVCAR-4 ovarian,> 100 µM
same,TGI,HOP-62 NSCLC,> 100 µM
same,TGI,SNB-75 CNS,> 100 µM
same,TGI,HL-60(TB) leukemia,64 µM
same,TGI,SR leukemia,> 100 µM
same,TGI,HCT-116 colon,> 100 µM
same,TGI,CCRF-CEM leukemia,> 100 µM
same,TGI,MCF7 breast,> 100 µM
same,TGI,A498 renal,> 100 µM
same,TGI,K-562 leukemia,> 100 µM
same,TGI,TK-10 renal,> 100 µM
same,TGI,NCI-H23 lung,> 100 µM
same,TGI,MDA-N,> 100 µM
same,TGI,CAKI-1 renal,> 100 µM
same,TGI,NCI-H460 lung,> 100 µM
same,TGI,LOX IMVI melanoma,62.2 µM
same,TGI,SK-MEL-28 melanoma,> 100 µM
same,TGI,SW-620 colon,71.3 µM
same,TGI,SK-MEL-5 melanoma,> 100 µM
same,TGI,786-0 renal,> 100 µM
same,TGI,NCI/ADR-RES ovarian,> 100 µM
same,TGI,COLO 205 colon,> 100 µM
same,TGI,HCC-2998 colon,> 100 µM
same,TGI,OVCAR-5 ovarian,> 100 µM
same,TGI,UO-31 renal,> 100 µM
same,TGI,RXF 393 renal,> 100 µM
same,TGI,SK-OV-3 ovarian,> 100 µM
same,TGI,KM12 colon,89.3 µM
same,TGI,OVCAR-8 ovarian,> 100 µM
O=c1[nH]c(=O)n(COCCOCc2ccccc2)cc1Nc1ccccc1,TGI,EKVX NSCLC,> 100 µM
same,TGI,UACC-257 melanoma,> 100 µM
same,TGI,T-47D breast,> 100 µM
same,TGI,SF-295 CNS,> 100 µM
same,TGI,SNB-19 CNS,> 100 µM
same,TGI,OVCAR-3 ovarian,> 100 µM
same,TGI,UACC-62 melanoma,> 100 µM
same,TGI,MOLT-4 leukemia,> 100 µM
same,TGI,HCT-15 colon,> 100 µM
same,TGI,SF-268 CNS,> 100 µM
same,TGI,HOP-92 NSCLC,> 100 µM
same,TGI,PC-3 prostate,> 100 µM
same,TGI,SK-MEL-2 melanoma,> 100 µM
same,TGI,MALME-3M melanoma,> 100 µM
same,TGI,ACHN renal,> 100 µM
same,TGI,MDA-MB-435,> 100 µM
same,TGI,NCI-H522 lung,> 100 µM
same,TGI,A549 NSCLC,> 100 µM
same,TGI,SN12C renal,> 100 µM
same,TGI,SF-539 CNS,> 100 µM
same,TGI,HT29 colon,> 100 µM
same,TGI,M14 melanoma,> 100 µM
same,TGI,U251 CNS,> 100 µM
same,TGI,DU-145 prostate,> 100 µM
same,TGI,IGROV1 ovarian,> 100 µM
same,TGI,OVCAR-4 ovarian,> 100 µM
same,TGI,HOP-62 NSCLC,> 100 µM
same,TGI,SNB-75 CNS,> 100 µM
same,TGI,HL-60(TB) leukemia,> 100 µM
same,TGI,SR leukemia,> 100 µM
same,TGI,HCT-116 colon,> 100 µM
same,TGI,CCRF-CEM leukemia,> 100 µM
same,TGI,MCF7 breast,> 100 µM
same,TGI,A498 renal,> 100 µM
same,TGI,K-562 leukemia,> 100 µM
same,TGI,TK-10 renal,> 100 µM
same,TGI,NCI-H23 lung,> 100 µM
same,TGI,MDA-N,> 100 µM
same,TGI,CAKI-1 renal,> 100 µM
same,TGI,NCI-H460 lung,> 100 µM
same,TGI,MDA-MB-231 breast,> 100 µM
same,TGI,LOX IMVI melanoma,> 100 µM
same,TGI,SK-MEL-28 melanoma,> 100 µM
same,TGI,SW-620 colon,> 100 µM
same,TGI,786-0 renal,> 100 µM
same,TGI,NCI-H226 lung,> 100 µM
same,TGI,NCI/ADR-RES ovarian,> 100 µM
same,TGI,COLO 205 colon,> 100 µM
same,TGI,HCC-2998 colon,> 100 µM
same,TGI,OVCAR-5 ovarian,> 100 µM
same,TGI,UO-31 renal,> 100 µM
same,TGI,RXF 393 renal,> 100 µM
same,TGI,SK-OV-3 ovarian,> 100 µM
same,TGI,KM12 colon,> 100 µM
same,TGI,OVCAR-8 ovarian,> 100 µM
